Four compounds from patent publication US5602259A, “Method for producing 4-hydroxy-5-methyl-3[2H]-furanone and uses of same” (priority 1993, dated 1997) can be followed below.

One data set is described as follows: in vitro. It counts as cell-based. The conditions noted are these: fibroblast cells. The source says: (§1) 4-hydroxy-5-methyl-3[2H]-furanone obtained by the method of the invention has an excellent activity to inhibit melanin formation.
A short description of data set [1]: Anti-oxidation activity (1): inhibition of autonomous oxidation of linolenic acid, absorbance at 500 nm. The conditions noted are these: for concentration showing 90% inhibition of autonomous oxidation of linolenic acid: pH 7.4, 37° C., 24 hours, for the extract: concentration of 4-hydroxy-5-methyl-3[2H]-furanone. It is filed as biochemical. The method, then: (§2) An anti-oxidation activity of 4-hydroxy-5-methyl-3[2H]-furanone was examined as follows:
To 1.0 ml of 0.2M potassium phosphate buffer(pH 7.4) containing 2 mg/ml of linolenic acid and 10 mg/ml of Tween-20 was added the extract obtained from Lichrosorb RP-18 column in Example 1, which contains a serial concentrations of 10~2000 ppm of 4-hydroxy-5-methyl-3[2H]-furanone. […] The resulting mixture was allowed at 37° C. for 24 hours. 0.1 ml of the reaction mixture was taken and diluted with 9.7 ml of ethanol. 0.1 ml of 30% ammonium thiocyanide and 0.1 ml of a mixture of 5% ferrous ammonium sulfate and 3.5% […] were added, and 3 minutes later, an absorbance at 500 nm was measured to evaluate an automatic oxidation of fatty acid.

Data set [2] in a line: Anti-oxidation activity (2): prevention of oxidation of unsaturated fatty acid over time (FIG. 5). It is filed as biochemical. Particulars: 200 ppm, 37° C., pH 7.4. On the procedure:
as §2
1.0 ml of 0.2M potassium phosphate buffer(pH 7.4) containing 2mg/ml of linolenic acid, 10 mg/ml of Tween-20 and 200 ppm of L-ascorbic acid, tocopherol or 4-hydroxy-5-methyl-3[2H]-furanone was allowed to stand at 37° C. for 24 hours. For a control, 1.0 ml of 0.2M potassium phosphate buffer(pH 7.4) containing 2 mg/ml of linolenic acid and 10 mg/ml of Tween-20 was employed.
The same procedure as that of Experimental Example 2 was carried out to evaluate the anti-oxidation activity of test compounds.
In FIG. 5, the longitudinal axis indicates an amount of fatty peroxide represented by an absorbance at 500 nm and the horizontal axis indicates the time in days.

A further data set deals with murine melanoma cells. Kind of data set: Inhibitive effect on melanin formation in melanoma cells. It is filed as cell-based. The conditions noted are these: Mus musculus, 48 h, 37° C., by observing the color of the cells, read-out: concentration with inhibitive effect on melanin formation within melanoma cells. The method, then:
as §1
To a T-shaped flask containing […] of Eagle's medium containing 10% fetal calf essential medium was added murine melanoma cells in an amount of 5×10^4 cells/30 ml. […] After the cultivation, the cells were collected and examined for melanin formation of the cells by observing the color of the cells.

A further data set concerns the target T1, tyrosinase (Agaricus bisporus, UniProt C7FF04).
T1 construct: purchased SIGMA
Put plainly: Tyrosinase-inhibiting action. It is filed as biochemical. The conditions noted are these: pH 6.8, 37° C., 10 minutes, tyrosine substrate. On the procedure: As an enzyme, tyrosinase purchased from SIGMA was used. […] Water were used to dilute the test compounds. As a control, 0.9 ml of 1:1 mixture of ethanol and water was used. […] The test tube was quickly cooled in an ice water bath to stop the reaction, and the absorbance was measured at 475 nm. The tyrosinase-inhibitory activities of the test compounds were calculated by using the following equation: [formula] From the inhibitions(%) of a series of dilutions of test compounds, IC50, i.e., the concentration of test compound which inhibit tyrosinase by 50% was calculated for each test compound.

T1 sequence (C7FF04 2-392 limits assumed): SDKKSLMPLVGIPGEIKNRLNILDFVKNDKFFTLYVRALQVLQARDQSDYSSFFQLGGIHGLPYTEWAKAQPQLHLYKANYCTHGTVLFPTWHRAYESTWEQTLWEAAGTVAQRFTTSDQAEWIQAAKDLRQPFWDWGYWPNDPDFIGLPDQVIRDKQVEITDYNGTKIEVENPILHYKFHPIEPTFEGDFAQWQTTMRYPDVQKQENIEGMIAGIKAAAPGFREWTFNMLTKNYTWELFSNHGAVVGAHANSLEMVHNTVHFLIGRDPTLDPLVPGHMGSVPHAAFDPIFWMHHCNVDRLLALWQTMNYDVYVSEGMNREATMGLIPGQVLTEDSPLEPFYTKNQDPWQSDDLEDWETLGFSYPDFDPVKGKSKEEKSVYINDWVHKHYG

For the compound `CC1=C(O)C(=O)CO1` [4-hydroxy-5-methyl-3[2H]-furanone], in “in vitro”, the MCC at 48 h is above 500 µg/mL. The “anti-oxidation activity (in words)” value in data set [1] (compared with maltol, kojic acid or L-ascorbic acid) is “superior over maltol, kojic acid or L-ascorbic acid”. In addition, the “prevention of oxidation of unsaturated fatty acid (in words)” value in data set [2] was “can prevent more efficiently the oxidation of unsaturated fatty acid than the same amount of L-ascorbic acid or α-tocopherol”. For the same compound, in the data set with murine melanoma cells, the minimal effective concentration was in the range of 10 to 20 µg/mL. For the same compound, the IC50 on tyrosinase was 52.6 µM.

`O=C1O[C@H]([C@@H](O)CO)C(O)=C1O` [ascorbic acid, L-ascorbic acid] registered an MCC at 48 h in the data set “in vitro” of 50 µg/mL.

`O=c1cc(CO)occ1O` [kojic acid] came in with an MCC at 48 h in “in vitro” above 500 µg/mL. In data set [1], the “concentration showing 90% inhibition of autonomous oxidation of linolenic acid” value is on record as 600 ppm.

For the compound `Cc1occc(=O)c1O` [maltol], the “concentration showing 90% inhibition of autonomous oxidation of linolenic acid” value in data set [1] was determined as 460 ppm.

The term IC50 denotes the concentration at which inhibition is half-maximal. A high value points to weaker potency in that assay.
